# What was measured:
# [1] = tested on: Streptococcus pneumoniae; assay: Antimicrobial activity against penicillin-resistant Streptococcus pneumoniae clinical isolates by standard broth microdilution method; format: functional
# [2] = tested on: Streptococcus pyogenes; assay: Antimicrobial activity against Streptococcus pyogenes ATCC 19615 by standard broth microdilution method; format: functional
# [3] = tested on: Streptococcus pneumoniae; assay: Antimicrobial activity against Streptococcus pneumoniae ATCC 49619 by standard broth microdilution method; format: functional
# [4] = tested on: Staphylococcus epidermidis; assay: Antimicrobial activity against Staphylococcus epidermidis ATCC 12228 by standard broth microdilution method; format: functional
# [5] = tested on: Staphylococcus aureus; assay: Antimicrobial activity against levofloxacin-resistant Staphylococcus aureus clinical isolates by standard broth microdilution method; format: functional
# [6] = tested on: Staphylococcus aureus; assay: Antimicrobial activity against methicillin-resistant Staphylococcus aureus clinical isolates by standard broth microdilution method; format: functional
# [7] = tested on: Pseudomonas aeruginosa; assay: Antimicrobial activity against Pseudomonas aeruginosa ATCC 27853 by standard broth microdilution method; format: functional
# [8] = tested on: Staphylococcus aureus; assay: Antimicrobial activity against Staphylococcus aureus ATCC 25923 by standard broth microdilution method; format: functional
# [9] = tested on: Escherichia coli; assay: Antimicrobial activity against Escherichia coli ATCC 25922 by standard broth microdilution method; format: functional
# [10] = tested on: Escherichia coli; assay: Antimicrobial activity against ciprofloxacin-resistant Escherichia coli clinical isolates by standard broth microdilution method; format: functional
# [11] = tested on: Staphylococcus epidermidis; assay: Antimicrobial activity against methicillin-resistant Staphylococcus epidermidis clinical isolates by standard broth microdilution method; format: functional
# [12] = tested on: Staphylococcus aureus; assay: Potency index, ratio of MIC for levofloxacin to MIC for test compound against methicillin-resistant Staphylococcus aureus clinical isolates by standard broth microdilution method; format: functional
# [13] = tested on: Staphylococcus aureus; assay: Potency index, ratio of MIC for moxifloxacin to MIC for test compound against methicillin-resistant Staphylococcus aureus clinical isolates by standard broth microdilution method; format: functional
# [14] = Aqueous solubility of the compound in water; format: physicochemical
Compound,MIC [1] [µg/mL],MIC [2] [µg/mL],MIC [3] [µg/mL],MIC [4] [µg/mL],MIC [5] [µg/mL],MIC [6] [µg/mL],MIC [7] [µg/mL],MIC [8] [µg/mL],MIC [9] [µg/mL],MIC [10] [µg/mL],MIC [11] [µg/mL],Ratio [12],Ratio [13],solubility [14] [µg/mL]
CC1(C)S[C@@H]2[C@H](NC(=O)Cc3ccccc3)C(=O)N2[C@H]1C(=O)O [PENICILLIN G],1,1,1,–,–,–,–,–,–,–,–,–,–,–
C[C@H]1COc2c(N3CC[C@@H](O)C3)c(F)cc3c(=O)c(C(=O)O)cn1c23,0.5,0.25,0.25,0.0625,2,4,8,0.0625,0.125,0.5,2,–,–,–
C[C@H]1COc2c(N3CC[C@H](O)C3)c(F)cc3c(=O)c(C(=O)O)cn1c23,2,2,2,0.031,0.25,1,1,0.031,≤ 0.016,0.0625,1,32,4,–
CN[C@H](CC(C)C)C(=O)N[C@H]1C(=O)N[C@@H](CC(N)=O)C(=O)N[C@H]2C(=O)N[C@H]3C(=O)N[C@H](C(=O)N[C@H](C(=O)O)c4cc(O)cc(O)c4-c4cc3ccc4O)[C@H](O)c3ccc(c(Cl)c3)Oc3cc2cc(c3O[C@@H]2O[C@H](CO)[C@@H](O)[C@H](O)[C@H]2O[C@H]2C[C@](C)(N)[C@H](O)[C@H](C)O2)Oc2ccc(cc2Cl)[C@H]1O [VANCOMYCIN],0.125,0.0625,0.25,–,–,–,–,–,–,–,–,–,–,–
O=C(O)c1cn2c3c(c(N4CCC(O)CC4)c(F)cc3c1=O)OC[C@@H]2CF,0.031,0.031,0.125,0.0625,0.5,2,2,0.0625,1,2,1,–,–,–
O=C(O)c1cn(C2CC2)c2cc(N3CCNCC3)c(F)cc2c1=O [CIPROFLOXACIN],–,0.5,2,0.0625,–,–,–,–,≤ 0.016,–,–,–,–,–
O=C(O)c1cn2c3c(c(N4CC[C@H](O)C4)c(F)cc3c1=O)OC[C@@H]2CF,0.031,≤ 0.016,0.125,0.031,0.5,1,1,0.031,0.25,0.5,0.5,–,–,440
C[C@H]1COc2c(N3CC(O)C3)c(F)cc3c(=O)c(C(=O)O)cn1c23,0.5,0.125,0.25,0.0625,1,8,4,0.0625,0.125,0.5,2,–,–,–
COc1c(N2C[C@@H]3CCCN[C@@H]3C2)c(F)cc2c(=O)c(C(=O)O)cn(C3CC3)c12 [MOXIFLOXACIN],–,0.25,0.25,≤ 0.016,–,–,4,–,0.031,–,–,–,–,–
